# Where a SMILES comes first, the peptide text is derived from it.
# Assays:
# [1] = test system: peptide-forming enzyme (Mono S fraction enzyme); experiment: Enzyme substrate specificity (1)-(10), (13), (14): peptide production; format: biochemical, Empedobacter brevis; parameters: key to Formed peptide: +: those peptides for which production was confirmed but which were unable to be quantified due to the absence of a standard; a trace amount; details: pH 9.0, 25° C., 3 hours; for Produced peptide: L-amino acid ester 100 mM, peptide (amine component) 150 mM
# Description: Ester specificity was examined in the case of using L-amino acid ester for the carboxy component. 2 μl of the same enzyme fraction as used in Example 5 was added to 100 μl of 100 mM borate buffer (pH 9.0) containing the carboxy components indicated in Table 4 at 100 mM, 200 mM L-glutamine and 10 mM EDTA, and allowed to react at 25° C. for 2 hours. HCl represents hydrochloride in Table 4.
# Peptide production was examined in the case of using L-alanine methyl ester for the carboxy component and using various L-amino acids for the amine component.
# Peptide production was examined in the case of using various types of L-amino acid methyl esters for the carboxy component and using L-glutamine for the amine component. 2 μl of the same enzyme fraction as used in Example 5 was added to 100 μl of 100 mM borate buffer (pH 9.0) containing the L-amino acid methyl ester hydrochloride salts (AA-OMe.HCl) shown in Table 6 at 100 mM, 150 mM L-glutamine and 10 mM EDTA, and allowed to react at 25° C. for 3 hours. […] Furthermore, Tween-80 was added to the reaction system to a final concentration of 0.1% in the case of using L-Trp-OMe and L-Tyr-OMe.
# Peptide production was examined in the case of using various L-amino acid methyl esters for the carboxy component and various L-amino acids for the amine component. 2 μl of the same enzyme fraction as used in Example 5 was added to 100 μl of 100 mM borate buffer (pH 9.0) containing the L-amino acid methyl ester hydrochloride salts (AA-OMe.HCl) shown in Table 7 at 100 mM, the L-amino acids shown in Table 7 at 150 mM and 10 mM EDTA, and allowed to react at 25° C. for 3 hours. The “tr” indicates a trace amount. Furthermore, Tween-80 was added to the reaction system to a final concentration of 0.1% in the case of using L-Trp-OMe.
# Peptide production was examined in the case of using the L or D forms of various amino acid methyl esters for the carboxy component, and the L or D forms of various amino acids for the amine component. 2 μl of the same enzyme fraction as used in Example 5 was added to 100 μl of 100 mM borate buffer (pH 9.0) containing the various amino acid methyl ester hydrochloride salts (AA-OMe HCl) shown in Table 8 at 100 mM, the various amino acids shown in Table 8 at 150 mM and 10 mM EDTA, and allowed to react at 25° C. for 3 hours. The “tr” indicates a trace amount.
# Peptide production was examined using various L-amino acid amides for the carboxy component, and various L-amino acids for the amine component. 2 μl of the same enzyme fraction as that used in Example 5 was added to 100 μl of 100 mM borate buffer (pH 9.0) containing the L-amino acid amide hydrochloride salt (M-NH2.HCl) shown in Table 9 at 100 mM, the L-amino acids shown in Table 9 at 150 mM and 10 mM EDTA, and allowed to react at 25° C. for 3 hours.
# Peptide production was examined in the case of using various L-alanine methyl esters for the carboxy component and C-protected L-amino acids for the amine component. 2 μl of the same enzyme fraction as used in Example 5 was added to 100 μl of 100 mM borate buffer (pH 9.0) containing the L-alanine methyl ester hydrochloride hydrochloride salt (Ala-OMe.HCl) shown in Table 10 at 100 mM, the L-amino acid amide hydrochloride salts shown in Table 10 at 150 mM and 10 mM EDTA, and allowed to react at 25° C. for 3 hours.
# Peptide production was examined in the case of using various amino acid methyl esters for the carboxy component and methylamine for the amine component. 2 μl of the same enzyme fraction as used in Example 5 was added to 100 μl of 100 mM borate buffer (pH 9.0) containing the amino acid methyl ester hydrochloride salt (M-OMe.HCl) shown in Table 11 at 100 mM, the methylamine shown in Table 11 at 150 mM and 10 mM EDTA, and allowed to react at 25° C. for 3 hours.
# Peptide production was examined in the case of using […] for the carboxy component or β-amino acid for the amine component.
# [2] = test system: enzyme derived from Sphingobacterium sp. strain FERM BP-8124 (SP-Sepharose HP fraction enzyme); experiment: Enzyme substrate specificity (11), (12): peptide production; format: biochemical; parameters: key to Produced peptide (Table 15-1) / Produced peptide (Table 15-3) / Produced peptide (Table 15-4): +: those peptides for which production was confirmed but which were unable to be quantified due to the absence of a standard; a trace amount; details: carboxy component 100 mM, 0.33 units enzyme, pH 9.0, 25° C., 1.5 hours; for Produced peptide (Table 15-1) / Produced peptide (Table 16, oligopeptide) / Produced peptide (Table 15-3) / Produced peptide (Table 15-4): amine component 150 mM; for Produced peptide (Table 15-2): L-Gln 150 mM; for Produced peptide (Table 15-4): amides and methylamine
# Excerpt: Substrate specificity was examined for enzyme derived from Sphingobacterium sp. strain FERM BP-8124 (Depositary institution: the independent administrative corporation, National Institute of Advanced Industrial Science and Technology, International Patent Organism Depositary, Address of depositary institution: Chuo Dai-6, 1-1 Higashi 1-Chome, Tsukuba-shi, Ibaraki-ken, Japan, International deposit date: […] The amounts of various peptides formed in this reaction are shown in Table 15. The “+” mark indicates those peptides for which production was confirmed but which were unable to be quantified due to the absence of a standard, while “tr” indicates a trace amount. Furthermore, Tween-80 was added to the reaction system to a final concentration of 0.1% in the case of using L-Tyr-OMe. In addition, hydrochloride salts were used for all carboxy components. Substrate specificity with respect to oligopeptide production was examined for enzyme derived from Sphingobacterium sp. strain FERM BP-8124 (Depositary institution: the independent administrative corporation, National Institute of Advanced Industrial Science and Technology, International Patent Organism Depositary, Address of depositary institution: Chuo Dai-6, 1-1 Higashi 1-Chome, Tsukuba-shi, Ibaraki-ken, Japan, International deposit date: […] The amounts of each oligopeptide formed in this reaction are shown in Table 16. Furthermore, hydrochloride salts were used for all the carboxy components.
# [3] = 100 mM L-alanine methyl ester hydrochloride, L-amino acid 150 mM
# [4] = L-amino acid methyl ester hydrochloride 100 mM, 150 mM L-glutamine
# [5] = L-amino acid methyl ester hydrochloride 100 mM, L-amino acid 150 mM
# [6] = L-alanine methyl ester hydrochloride 100 mM, L-amino acid amide hydrochloride 150 mM
# [7] = amino acid methyl ester hydrochloride 100 mM, methylamine 150 mM
compound,measurement,setting,value
C[C@H](N)C(=O)N[C@@H](CCCCN)C(=O)O [L-Ala-L-Lys] (H-Ala-Lys-OH),Formed peptide,[1]; [3],71.8 mM
same,Produced peptide (Table 15-1),[2],71.2 mM
NC(=O)CC[C@H](NC(=O)[C@@H](N)Cc1ccccc1)C(=O)O [L-Phe-L-Gln],Formed peptide,"[1]; L-amino acid amide hydrochloride as carboxy component 100 mM, L-amino acid 150 mM",0.2 mM
same,Formed peptide,[1]; [4],0.9 mM
same,Produced peptide (Table 15-2),[2],0.8 mM
C[C@H](N)C(=O)N[C@@H](CC(=O)O)C(=O)O [L-Ala-L-Asp] (H-Ala-Asp-OH),Formed peptide,[1]; [3],2.1 mM
same,Produced peptide (Table 15-1),[2],2.3 mM
L-Ala-L-Leu-L-Ala,Produced peptide,[1],48.3 mM
same,"Produced peptide (Table 16, oligopeptide)",[2],40.7 mM
C[C@H](N)C(=O)N[C@@H](Cc1c[nH]c2ccccc12)C(=O)O [L-Ala-L-Trp] (H-Ala-Trp-OH),Formed peptide,[1]; [3],53.9 mM
same,Produced peptide (Table 15-1),[2],46.0 mM
CC[C@H](C)[C@H](N)C(=O)N[C@@H](Cc1ccccc1)C(=O)O [L-Ile-L-Phe] (H-Ile-Phe-OH),Formed peptide,[1]; [5],5.2 mM
same,Produced peptide (Table 15-3),[2],1.5 mM
L-Ala-L-Phe-L-Ala,Produced peptide,[1],49.7 mM
same,"Produced peptide (Table 16, oligopeptide)",[2],24.8 mM
C[C@H](N)C(=O)N1CCC[C@H]1C(=O)O [L-Ala-L-Pro] (H-Ala-Pro-OH),Formed peptide,[1]; [3],tr
same,Produced peptide (Table 15-1),[2],1.5 mM
CC[C@H](C)[C@H](N)C(=O)N[C@@H](CO)C(=O)O [L-Ile-L-Ser] (H-Ile-Ser-OH),Formed peptide,[1]; [5],17.2 mM
same,Produced peptide (Table 15-3),[2],17.3 mM
N[C@@H](CO)C(=O)N[C@@H](Cc1ccccc1)C(=O)O [L-Ser-L-Phe],Formed peptide,[1]; [5],20.3 mM
same,Produced peptide (Table 15-3),[2],4.3 mM
C[C@H](N)C(=O)N[C@H](C(=O)O)[C@@H](C)O [L-Ala-L-Thr] (H-Ala-Thr-OH),Formed peptide,[1]; [3],53.9 mM
same,Produced peptide (Table 15-1),[2],47.3 mM
L-Ala-L-Ala-L-Ala-L-Ala,Produced peptide,[1],44.5 mM
same,"Produced peptide (Table 16, oligopeptide)",[2],30.1 mM
CC(C)[C@H](N)C(=O)N[C@@H](Cc1ccccc1)C(=O)O [L-Val-L-Phe] (H-Val-Phe-OH),Formed peptide,[1]; [5],6.1 mM
same,Produced peptide (Table 15-3),[2],1.0 mM
L-Ala-L-His-L-Ala,Produced peptide,[1],55.9 mM
same,"Produced peptide (Table 16, oligopeptide)",[2],58.0 mM
C[C@H](N)C(=O)N[C@@H](CC(N)=O)C(=O)O [L-Ala-L-Asn] (H-Ala-Asn-OH),Formed peptide,[1]; [3],65.5 mM
same,Produced peptide (Table 15-1),[2],52.3 mM
CSCC[C@H](NC(=O)[C@@H](N)[C@@H](C)O)C(=O)O [L-Thr-L-Met] (H-Thr-Met-OH),Formed peptide,[1]; [5],38.6 mM
same,Produced peptide (Table 15-3),[2],28.9 mM
C[C@H](N)C(=O)NCC(=O)O [L-Ala-Gly] (H-Ala-Gly-OH),Formed peptide,[1]; [3],13.7 mM
same,Produced peptide (Table 15-1),[2],11.1 mM
NC(=O)CC[C@H](NC(=O)[C@@H](N)CC(=O)O)C(=O)O [α-L-Asp-L-Gln] (H-Asp-Gln-OH),Formed peptide,[1]; [4],tr
same,Produced peptide (Table 15-2),[2],0.05 mM
C[C@H](N)C(=O)N[C@@H](Cc1ccc(O)cc1)C(=O)O [L-Ala-L-Tyr] (H-Ala-Tyr-OH),Formed peptide,[1]; [3],17.6 mM
same,Produced peptide (Table 15-1),[2],11.1 mM
C[C@H](N)C(=O)N[C@@H](Cc1ccccc1)C(N)=O [L-Ala-L-Phe-NH2],Formed peptide,[1]; [6],12.2 mM
same,Produced peptide (Table 15-4),[2],27.1 mM
CNC(=O)CN [Gly-methylamine],Formed peptide,[1]; [7],1.1 mM
same,Produced peptide (Table 15-4),[2],1.0 mM
CNC(=O)C(C)N [L-Ala-methylamine],Formed peptide,[1]; [7],0.3 mM
same,Produced peptide (Table 15-4),[2],0.6 mM
C[C@H](NC(=O)[C@@H](N)[C@@H](C)O)C(=O)O [L-Thr-L-Ala] (H-Thr-Ala-OH),Formed peptide,[1]; [5],9.4 mM
same,Produced peptide (Table 15-3),[2],5.8 mM
L-Thr-Gly-Gly,Produced peptide,[1],83.0 mM
same,"Produced peptide (Table 16, oligopeptide)",[2],8.4 mM
C[C@H](N)C(=O)N[C@@H](CCC(=O)O)C(=O)O [L-Ala-L-Glu] (H-Ala-Glu-OH),Formed peptide,[1]; [3],42.9 mM
same,Produced peptide (Table 15-1),[2],39.1 mM
C[C@H](N)C(=O)NCC(N)=O [L-Ala-Gly-NH2] (H-Ala-Gly-NH2),Formed peptide,[1]; [6],7.4 mM
same,Produced peptide (Table 15-4),[2],15.1 mM
NCCCC[C@H](NC(=O)CN)C(=O)O [Gly-L-Lys] (H-Gly-Lys-OH),Formed peptide,[1]; [5],9.8 mM
same,Produced peptide (Table 15-3),[2],48.2 mM
NCC(=O)N[C@@H](Cc1ccccc1)C(=O)O [Gly-L-Phe] (H-Gly-Phe-OH),Formed peptide,[1]; [5],44.0 mM
same,Produced peptide (oligopeptide),[1]; amount of enzyme 0.1 unit,17.3 mM
same,Produced peptide (Table 15-3),[2],20.0 mM
CSCC[C@H](NC(=O)[C@@H](N)CO)C(=O)O [L-Ser-L-Met] (H-Ser-Met-OH),Formed peptide,[1]; [5],12.5 mM
same,Produced peptide (Table 15-3),[2],7.6 mM
NC(N)=NCCC[C@H](N)C(=O)N[C@@H](CO)C(=O)O [L-Arg-L-Ser] (H-Arg-Ser-OH),Formed peptide,[1]; [5],3.6 mM
same,Produced peptide (Table 15-3),[2],2.2 mM
NC(=O)CC[C@H](NC(=O)[C@@H](N)CO)C(=O)O [L-Ser-L-Gln] (H-Ser-Gln-OH),Formed peptide,[1]; [4],24.0 mM
same,Produced peptide (Table 15-2),[2],12.9 mM
C[C@H](N)C(=O)N[C@@H](C)C(=O)O [L-Ala-L-Ala] (H-Ala-Ala-OH),Formed peptide,[1]; [3],25.4 mM
same,Produced peptide,[1],28.7 mM
same,Produced peptide (Table 15-1),[2],13.1 mM
same,"Produced peptide (Table 16, oligopeptide)",[2],25.6 mM
C[C@H](N)C(=O)N[C@@H](CS)C(=O)O [L-Ala-L-CySH] (H-Ala-Cys-OH),Formed peptide,[1]; [3],+
same,Produced peptide (Table 15-1),[2],+
L-Ala-L-Phe-Gly,Produced peptide,[1],43.7 mM
same,"Produced peptide (Table 16, oligopeptide)",[2],34.0 mM

# From US20040204577A1, “Novel peptide-forming enzyme gene” (Ajinomoto Co., Inc., priority 2003, published 2004)
